The supplement of paper PMC10307832

Legend:
Experiment in all cases: relative viability (nuclei count vs DMSO), 5 days (fraction); higher = more cells survive
BGJ398 + Foretinib = compound: CCN1CCN(c2ccc(Nc3cc(N(C)C(=O)Nc4c(Cl)c(OC)cc(OC)c4Cl)ncn3)cc2)CC1 [BGJ398] + COc1cc2c(Oc3ccc(NC(=O)C4(C(=O)Nc5ccc(F)cc5)CC4)cc3F)ccnc2cc1OCCCN1CCOCC1 [Foretinib] (partner 0.25 µM)
Outline: (§1)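 Nuclei were stained with Hoechst during a one-step fixation (final 0.05% Triton X-100, 1% formaldehyde, 1 ug/ml Hoechst) carried out 5 days after dosing, then counted on 4× images. The cells, lung cancer lines in 1536-well plates, had been dosed by pin tool the day after seeding with one drug alone or a fixed anchor-drug dose plus five library-drug doses (not always all listed) in √10 steps. Relative viability is the nuclei count in treated wells divided by that in vehicle wells, and each value is the median of duplicate plates.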

[1] = compound: C1=CC2=NC=CN=C2C=C1/C=C/3\C(=O)NC(=O)S3 + Cc1nc(Nc2ncc(C(=O)Nc3c(C)cccc3Cl)s2)cc(N2CCN(CCO)CC2)n1 [Dasatinib] (partner 0.075 µM)
Outline: as §1

BGJ398 + Crizotinib = compound: CCN1CCN(c2ccc(Nc3cc(N(C)C(=O)Nc4c(Cl)c(OC)cc(OC)c4Cl)ncn3)cc2)CC1 [BGJ398] + C[C@@H](Oc1cc(-c2cnn(C3CCNCC3)c2)cnc1N)c1c(Cl)ccc(F)c1Cl [Crizotinib] (partner 1 µM)
Outline: as §1

[2] = compound: C1=CC2=NC=CN=C2C=C1/C=C/3\C(=O)NC(=O)S3 + Cc1nc(NC(=O)N2CCC[C@H]2C(N)=O)sc1-c1ccnc(C(C)(C)C(F)(F)F)c1 [Alpelisib] (partner 2 µM)
Outline: as §1

Cell Line	relative viability (BGJ398 + Foretinib; first compound 0.01 µM)	relative viability (BGJ398 + Foretinib; first compound 0.1 µM)	relative viability (BGJ398 + Foretinib; first compound 0.3162 µM)	relative viability (BGJ398 + Foretinib; first compound 1 µM)	relative viability ([1]; first compound 0.02 µM)	relative viability ([1]; first compound 0.06325 µM)	relative viability ([1]; first compound 0.2 µM)	relative viability ([1]; first compound 0.6325 µM)	relative viability ([1]; first compound 2 µM)	relative viability (BGJ398 + Crizotinib; first compound 0.01 µM)	relative viability (BGJ398 + Crizotinib; first compound 0.03162 µM)	relative viability (BGJ398 + Crizotinib; first compound 0.1 µM)	relative viability (BGJ398 + Crizotinib; first compound 0.3162 µM)	relative viability (BGJ398 + Crizotinib; first compound 1 µM)	relative viability ([2]; first compound 0.02 µM)	relative viability ([2]; first compound 0.06325 µM)	relative viability ([2]; first compound 0.2 µM)	relative viability ([2]; first compound 0.6325 µM)	relative viability ([2]; first compound 2 µM)	relative viability (BGJ398 + Foretinib; first compound 0.03162 µM)
LOU-NH91	0.943	0.975	0.563	0.951	0.568	0.597	0.551	0.525	0.354	0.724	0.506	0.688	0.569	0.728	0.721	0.762	0.676	0.738	0.728	
LU99A	0.761	0.855	0.897	0.756	0.576	0.922	0.462	0.508	0.287	0.532	0.49	0.595	0.525	0.479	0.575	0.562	0.607	0.501	0.393	0.804
LXF-289	0.901	0.881	0.873	0.871	0.192	0.176	0.254	0.215	0.0852	0.817	0.764	0.761	0.705	0.637	0.999	1.01	1.06	0.984	1.07	0.901
NCI-H23	1.01	1.17	1.06	0.881	0.703	0.976	0.715	0.754	0.29	0.531	0.539	0.486	0.58	0.566	0.67	0.803	0.589	0.692	0.567	1.08
NCI-H322M	1.03	1.07	0.966	0.958	0.274	0.27	0.269	0.239	0.238	1.04	0.77	0.956	0.961	1.1	0.835	0.713	0.74	0.852	0.67	0.896
NCI-H358	0.61	0.682	0.718	0.951	0.151	0.202	0.167	0.14	0.105	0.631	0.779	0.533	0.574	0.722	0.953	0.955	0.87	0.791	0.547	0.725
NCI-H441	0.997	0.893	0.998	1.11	0.797	0.526	0.7	0.573	0.281	0.601	0.841	0.778	0.691	0.783	0.714	0.844		0.876	0.636	0.902
NCI-H460	0.999	1.08	1.06	1.04	0.53	0.782	0.477	0.362	0.0894	0.59	0.861	1.02	0.892	0.826	0.508	0.514	0.464	0.429	0.379	0.994
NCI-H520	0.777	0.316	0.25	0.236	0.181	0.229	0.217	0.161	0.151	0.829	0.72	0.395	0.456	0.281	0.866	0.948	0.822	0.877	1.01	0.7
NCI-H596	0.903	0.773	0.944	0.779	0.67	0.588	0.62	0.528	0.427	0.935	0.843	0.883	0.944	0.794	0.486	0.451	0.469	0.537	0.502	0.804
NCI-H647	1.09	1.12	1.39	1.27	0.173	0.259	0.256	0.149	0.103	1.03	1.01	1.16	1.06	1.03	0.865	1.89	1.28	1.06	1.14	1.12
NCI-H650	0.983	1.06	1.04	0.928	0.524	0.468	0.561	0.415	0.286	0.57	0.791	0.808	0.857	0.727	1.08	1.04	1.06	1.1	1.02	1.06
NCI-H661	0.889	1.14	0.932	0.982	1.03	1.12	0.935	0.748	0.722		0.94	0.926	0.983	0.916	0.651	0.614	0.952	0.732	0.469	1.06
NCI-H727	1.12	0.822	0.848	0.927	0.488	0.362	0.355	0.378	0.24	0.809	0.853	0.795	0.857	0.711	0.647	0.571	0.556	0.653	0.346	0.773
NCI-H838	0.927	0.962	0.889	0.914	0.278	0.179	0.311	0.257	0.187	0.804	0.837	0.781	0.782	0.652	0.989	1.16	1	1.04	0.913	1.08
NCI-H1355	0.925	1.03	0.951	0.898	0.476	0.599	0.709	0.714	0.47	1.01	1.02	1.03	0.962	1.08	0.67	0.776	0.864	0.773	0.751	0.98
